This is an account of results in patent US20160272617A1, “SUBSTITUTED PHENYLALANINE DERIVATIVES” (BAYER PHARMA AKTIENGESELLSCHAFT, priority 2013, published 2016).

Structures can show the parent of a compound that is named as a salt.

One assay has as its target T1, human factor XIa (Homo sapiens, UniProt P03951).
T1 construct: purchased Kordia
Kind of assay: Measurement of FXIa inhibition (fluorogenic peptide substrate Boc-Glu(OBzl)-Ala-Arg-AMC). It counts as biochemical. The conditions noted are these: factor XIa from Kordia, 15 min preincubation, 30 min at 22° C., fluorescence. On the procedure: The factor XIa inhibition of the inventive substances is determined using a biochemical test system which utilizes the reaction of a peptidic factor XIa substrate to determine the enzymatic activity of human factor XIa. Here, factor XIa cleaves from the peptic factor XIa substrate the C-terminal aminomethylcoumarin (AMC), the fluorescence of which is measured. The determinations are carried out in microtitre plates.
Test substances are dissolved in dimethyl sulphoxide and serially diluted in dimethyl sulphoxide (3000 μM to 0.0078 μM; resulting final concentrations in the test: 50 μM to 0.00013 μM). In each case 1 μl of the diluted substance solutions is placed into the wells of white microtitre plates from Greiner (384 wells). Subsequently, the following are added successively: 20 μl of assay buffer (50 mmol/l Tris buffer pH 7.4; 100 mmol/l sodium chloride; 5 mmol/l calcium chloride; 0.1% bovine serum albumin) and 20 μl of factor XIa from Kordia (0.45 nM in assay buffer). After 15 min of incubation, the enzyme reaction is started by addition of 20 μl of the factor XIa substrate Boc-Glu(OBzl)-Ala-Arg-AMC dissolved in assay buffer (10 μM in assay buffer) from Bachem, the mixture is incubated at room temperature (22° C.) for 30 min and fluorescence is then measured (excitation: 360 nm, emission: 460 nm). The measured emissions of the test mixtures with test substance are compared to those of control mixtures without test substance (only dimethyl sulphoxide instead of test substance in dimethyl sulphoxide), and the IC50 values are calculated from the concentration/activity relationships.

In another assay the test system is human and animal plasma. The assay can be described thus: Determination of anticoagulatory activity: activated partial thromboplastin time (aPTT) in plasma. Conditions: concentration of test substance which brings about a 1.5-fold extension of the aPTT; plasma species not given. On the procedure: The anticoagulatory activity of the test substances is determined in vitro in human and animal plasma (for example mouse, rat, rabbit, pig and dog plasma). To this end, blood is drawn off in a mixing ratio of sodium citrate/blood of 1:9 using a 0.11 molar sodium citrate solution as receiver. Immediately after the blood has been drawn off, it is mixed thoroughly and centrifuged at about 4000 g for 15 minutes. The supernatant is pipetted off.
The activated partial thromboolastin time (aPTT) is determined in the presence of varying concentrations of test substance or the corresponding solvent using a commercial test kit (C. K. Prest from Diagnostica Stago). The test compounds are incubated with the plasma and the PTT reagent (cephalin, kaolin) at 37° C. for 3 minutes. Coagulation is then started by addition of a 25 mM aqueous calcium chloride solution, and the time when coagulation occurs is determined. The concentration of test substance which brings about a 1.5-fold extension of the aPTT is determined.

T1 sequence (P03951 388-625 limits assumed): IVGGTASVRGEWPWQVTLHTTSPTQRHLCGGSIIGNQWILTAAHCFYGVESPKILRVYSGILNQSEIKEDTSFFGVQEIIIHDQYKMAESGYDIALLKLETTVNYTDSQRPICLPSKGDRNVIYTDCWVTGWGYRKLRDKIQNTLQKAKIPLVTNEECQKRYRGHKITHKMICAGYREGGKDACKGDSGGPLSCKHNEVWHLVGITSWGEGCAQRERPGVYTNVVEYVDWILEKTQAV
T1 sequence (P03951 19-387 partner limits assumed): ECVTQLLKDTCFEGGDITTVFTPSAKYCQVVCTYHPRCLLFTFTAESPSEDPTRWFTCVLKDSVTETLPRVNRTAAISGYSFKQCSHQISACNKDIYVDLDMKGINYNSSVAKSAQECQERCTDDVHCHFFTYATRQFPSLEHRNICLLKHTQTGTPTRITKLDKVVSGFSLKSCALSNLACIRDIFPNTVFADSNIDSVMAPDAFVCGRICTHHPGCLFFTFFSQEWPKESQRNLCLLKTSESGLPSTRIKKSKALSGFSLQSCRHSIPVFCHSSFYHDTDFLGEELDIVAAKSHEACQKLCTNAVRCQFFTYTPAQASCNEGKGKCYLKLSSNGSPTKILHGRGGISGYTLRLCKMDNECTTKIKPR

As to `NC[C@H]1CC[C@H](C(=O)N[C@@H](Cc2ccc(-c3ccc(C(=O)N[C@@H]4CCNC4)cc3Cl)cc2)C(=O)Nc2ccc(-c3nn[nH]n3)cc2)CC1` [Example 12, 4′-[(2S)-2-({[trans-4-(Aminomethyl)cyclohexyl]carbonyl}amino)-3-oxo-3-{[4-(2H-tetrazol-5-yl)phenyl]amino}propyl]-2-chloro-N-[(3R)-pyrrolidin-3-yl]biphenyl-4-carboxamide hydrochloride], the IC50 on human factor XIa was found to be 2.7 nM. In addition, in the assay on human and animal plasma, the “aPTT” value was 0.1 µmol/L.

At human factor XIa, `NC[C@H]1CC[C@H](C(=O)N[C@@H](Cc2ccc(-c3ccc(C(=O)N[C@H]4CCNC4)cc3Cl)cc2)C(=O)Nc2ccc(-c3nn[nH]n3)cc2)CC1` [Example 13, 4′-[(2S)-2-({[trans-4-(Aminomethyl)cyclohexyl]carbonyl}amino)-3-oxo-3-{[4-(2H-tetrazol-5-yl)phenyl]amino}propyl]-2-chloro-N-[(3S)-pyrrolidin-3-yl]biphenyl-4-carboxamide hydrochloride] registered a 50% inhibitory concentration (IC50) of 4.2 nM. In the assay on human and animal plasma, the “aPTT” value is 0.44 µmol/L.

Take `Cc1cc(C(N)=O)ccc1-c1ccc(C[C@H](NC(=O)[C@H]2CC[C@H](CN)CC2)C(=O)Nc2ccc(-c3nn[nH]n3)cc2)cc1` [Example 14, 4′-[(2S)-2-({[trans-4-(Aminomethyl)cyclohexyl]carbonyl}amino)-3-oxo-3-{[4-(2H-tetrazol-5-yl)phenyl]amino}propyl]-2-methylbiphenyl-4-carboxamide hydrochloride]: at human factor XIa, the IC50 turned out to be 1.4 nM. Further, the “aPTT” value in the assay with human and animal plasma turned out to be 0.49 µmol/L.

Consider `Cc1cc(C(=O)NCCN)ccc1-c1ccc(C[C@H](NC(=O)[C@H]2CC[C@H](CN)CC2)C(=O)Nc2ccc(-c3nn[nH]n3)cc2)cc1` [Example 15, N-(2-Aminoethyl)-4′-[(2S)-2-({[trans-4-(aminomethyl)cyclohexyl]carbonyl}amino)-3-oxo-3-{[4-(2H-tetrazol-5-yl)phenyl]amino}propyl]-2-methylbiphenyl-4-carboxamide hydrochloride], for which, on human factor XIa, inhibition was half-maximal at 2.9 nM (IC50). Further, the “aPTT” value in the assay with human and animal plasma was 0.09 µmol/L.

Turning to `Cc1cc(C(=O)N2CCNCC2)ccc1-c1ccc(C[C@H](NC(=O)[C@H]2CC[C@H](CN)CC2)C(=O)Nc2ccc(-c3nn[nH]n3)cc2)cc1` [Example 16, trans-4-(Aminomethyl)-N-[(2S)-3-[2′-methyl-4′-(piperazin-1-ylcarbonyl)biphenyl-4-yl]-1-oxo-1-{[4-(2H-tetrazol-5-yl)phenyl]amino}propan-2-yl]cyclohexanecarboxamide hydrochloride], it took 3.9 nM to reach half-maximal inhibition on human factor XIa (IC50). Also, the “aPTT” value with human and animal plasma amounted to 0.23 µmol/L.

For the compound `Cc1cc(C(=O)NCCO)ccc1-c1ccc(C[C@H](NC(=O)[C@H]2CC[C@H](CN)CC2)C(=O)Nc2ccc3cn[nH]c3c2)cc1` [Example 17, 4′-[(2S)-2-({[trans-4-(Aminomethyl)cyclohexyl]carbonyl}amino)-3-(1H-indazol-6-ylamino)-3-oxopropyl]-N-(2-hydroxyethyl)-2-methylbiphenyl-4-carboxamide hydrochloride], on human factor XIa, the half-inhibitory concentration (IC50) came to 6.1 nM. Besides, the “aPTT” value in the assay on human and animal plasma was found to be 0.35 µmol/L.

With `Cc1cc(C(=O)NCCO)ccc1-c1ccc(C[C@H](NC(=O)[C@H]2CC[C@H](CN)CC2)C(=O)Nc2ccc(-c3nn[nH]n3)cc2)cc1` [Example 18, 4′-[(2S)-2-({[trans-4-(Aminomethyl)cyclohexyl]carbonyl}amino)-3-oxo-3-{[4-(2H-tetrazol-5-yl)phenyl]amino}propyl]-N-(2-hydroxyethyl)-2-methylbiphenyl-4-carboxamide hydrochloride], at human factor XIa, the IC50 amounted to 3.7 nM. The “aPTT” value in the assay on human and animal plasma is 0.16 µmol/L.

`Cc1cc(C(=O)NC2CCNCC2)ccc1-c1ccc(C[C@H](NC(=O)[C@H]2CC[C@H](CN)CC2)C(=O)Nc2ccc3c(=O)[nH][nH]c3c2)cc1` [Example 22, 4′-{(2S)-2-({[trans-4-(Aminomethyl)cyclohexyl]carbonyl}amino)-3-oxo-3-[(3-oxo-2,3-dihydro-1H-indazol-6-yl)amino]propyl}-2-methyl-N-(piperidin-4-yl)biphenyl-4-carboxamide hydrochloride] had an IC50 against human factor XIa of 15 nM. For the same compound, the “aPTT” value in the assay with human and animal plasma stood at 0.06 µmol/L.

Take `CCN(CC)CCNC(=O)c1ccc(-c2ccc(C[C@H](NC(=O)[C@H]3CC[C@H](CN)CC3)C(=O)Nc3ccc4c(=O)[nH][nH]c4c3)cc2)c(C)c1` [Example 23, 4′-{(2S)-2-({[trans-4-(Aminomethyl)cyclohexyl]carbonyl}amino)-3-oxo-3-[(3-oxo-2,3-dihydro-1H-indazol-6-yl)amino]propyl}-N-[2-(diethylamino)ethyl]-2-methylbiphenyl-4-carboxamide hydrochloride]: the 50% inhibitory concentration (IC50) on human factor XIa was determined as 27.5 nM. Besides, in the assay with human and animal plasma, the “aPTT” value is 0.28 µmol/L.

On human factor XIa, `CCN(CC)CCCNC(=O)c1ccc(-c2ccc(C[C@H](NC(=O)[C@H]3CC[C@H](CN)CC3)C(=O)Nc3ccc4c(=O)[nH][nH]c4c3)cc2)c(C)c1` [Example 24, 4′-{(2S)-2-({[trans-4-(Aminomethyl)cyclohexyl]carbonyl}amino)-3-oxo-3-[(3-oxo-2,3-dihydro-1H-indazol-6-yl)amino]propyl}-N-[3-(diethylamino)propyl]-2-methylbiphenyl-4-carboxamide hydrochloride] had an IC50 of 18 nM. In addition, the “aPTT” value with human and animal plasma was 0.31 µmol/L.

Compound `Cc1cc(C(=O)N[C@H]2CCNC2)ccc1-c1ccc(C[C@H](NC(=O)[C@H]2CC[C@H](CN)CC2)C(=O)Nc2ccc3c(=O)[nH][nH]c3c2)cc1` [Example 25, 4′-{(2S)-2-({[trans-4-(Aminomethyl)cyclohexyl]carbonyl}amino)-3-oxo-3-[(3-oxo-2,3-dihydro-1H-indazol-6-yl)amino]propyl}-2-methyl-N-[(3S)-pyrrolidin-3-yl]biphenyl-4-carboxamide hydrochloride] came in with an IC50 against human factor XIa of 14 nM. In addition, the “aPTT” value in the assay with human and animal plasma was 0.14 µmol/L.

On to `COCCOCCOCCOCCNC(=O)c1ccc(-c2ccc(C[C@H](NC(=O)[C@H]3CC[C@H](CN)CC3)C(=O)Nc3ccc(-c4nn[nH]n4)cc3)cc2)c(Cl)c1` [Example 26, 4′-[(2S)-2-({[trans-4-(Aminomethyl)cyclohexyl]carbonyl}amino)-3-oxo-3-{[4-(2H-tetrazol-5-yl)phenyl]amino}propyl]-2-chloro-N-(2,5,8, 11-tetraoxatridecan-13-yl)biphenyl-4-carboxamide hydrochloride], for which the IC50 against human factor XIa turned out to be 2.4 nM. Besides, the “aPTT” value in the assay with human and animal plasma stood at 0.19 µmol/L.

As to `COCCOCCOCCOCCNC(=O)c1ccc(-c2ccc(C[C@H](NC(=O)[C@H]3CC[C@H](CN)CC3)C(=O)Nc3ccc(-c4nn[nH]n4)cc3)cc2)c(C)c1` [Example 27, 4′-[(2S)-2-({[trans-4-(Aminomethyl)cyclohexyl]carbonyl}amino)-3-oxo-3-{[4-(2H-tetrazol-5-yl)phenyl]amino}propyl]-2-methyl-N-(2,5,8,11-tetraoxatridecan-13-yl)biphenyl-4-carboxamide hydrochloride], 2.8 nM corresponded to half-maximal inhibition on human factor XIa (IC50). In addition, in the assay on human and animal plasma, the “aPTT” value amounted to 0.24 µmol/L.

`COCCOCCOCCOCCNC(=O)c1ccc(-c2ccc(C[C@H](NC(=O)[C@H]3CC[C@H](CN)CC3)C(=O)Nc3ccc4c(=O)[nH][nH]c4c3)cc2)c(C)c1` [Example 28, 4′-{(2S)-2-({[trans-4-(Aminomethyl)cyclohexyl]carbonyl}amino)-3-oxo-3-[(3-oxo-2,3-dihydro-1H-indazol-6-yl)amino]propyl}-2-methyl-N-(2,5,8,11-tetraoxatridecan-13-yl)biphenyl-4-carboxamide hydrochloride] yielded an IC50 against human factor XIa of 14 nM. Moreover, the “aPTT” value with human and animal plasma came to 0.33 µmol/L.

As usually defined, the IC50 is the concentration at which inhibition is half-maximal.
